Experimental data reported in patent US20100087474A1, “MATERIALS AND METHODS FOR ENHANCED DEGRADATION OF MUTANT PROTEINS ASSOCIATED WITH HUMAN DISEASE” (UNIVERSITY OF FLORIDA, priority 2005, published 2010).
“And” between values parts separate entries of the source, which are not always exact repeats. Identical values can stand only once. “Also recorded” adds a separate entry of the source. Residues, ends and D or L forms follow the SMILES beside them. *: point of attachment. Cbz = O=C(OCc1ccccc1)*

Columns and labels:
P23H opsin = P23H opsin degradation in HEK293 stable cells (immunoblot); format: cell-based, human; settings: for effect of inhibitor on FTI-277 induced P23H opsin degradation: in the presence of FTI-277, 3MA 10 mM, MG132 25 μM; for effect of inhibitor on P23H opsin degradation: inhibitor added at autophagy induction, amino acid depleted cells; for loss of P23H opsin: after 12 hours, FTI-277 50 μM, rapamycin 50 nM
Description: Wild-type and P23H opsin were expressed in HEK293 tetracycline-inducible stable cell lines. The cells were grown in Dulbecco's modified Eagle's medium containing high glucose (Invitrogen, San Diego, Calif.) supplemented with 10% heat inactivated fetal bovine serum (Sigma) with antibiotic-antimycotic solution (Invitrogen, San Diego, Calif.), blasticidin (Cayla, Toulouse, France), zeocin (Invitrogen, San Diego, Calif.) at 37 C in the presence of 5.0% CO2. Opsin synthesis in cells was induced by addition of tetracycline (1 μg/ml). Baby hamster kidney (BHK) cell lines stably expressing the wild type and ΔF508 CFTR variant with a C-terminal HA epitope (CFTR-HA) (See Sharma et al., J. Cell Biol. 2004 164(6):923-33). The cells were grown in DMEM/F12 (Invitrogen, San Diego, Calif.) 1:1 ratio with 10% FBS at 37° C. in the presence of 5.0% CO2.
Autophagy was induced in cells by incubating them in amino-acid depleted medium or treating them with rapamycin ([…]), or both. Cells were incubated under autophagy inducing conditions for two, six, or twelve hours. At the indicated time point the cells were lysed in 1% n-dodecyl-β-maltoside (DM) (Anatrace, Maumee, Ohio) in the presence of protease inhibitors (complete protease inhibitor mixture tablets (Roche Molecular Biochemicals, Mannheim, Germany) for 1 hour at 4° C. The cells were centrifuged at 36,000 rpm in a Beckman ultracentrifuge for 30 minutes at 4 C. The lysate was collected and immunoblotting was performed.
(§1) Cell lysates were electrophoresed on 10% SDS polyacrylamide gels and transferred onto Immobilon-NC (Millipore, Billerica, Mass.) nitrocellulose membranes. The membranes were incubated at room temperature for 1 hour with a commercially available blocking buffer (Li-Cor, Lincoln, Nebr.) diluted 1:1 in PBST (PBS with 0.1% triton X-100, pH 7.4), followed by a 1 hour incubation with the indicated primary antibody. The blots were washed three times for 5 minutes each in PBST, and incubated for 1 hour with a true near infrared dye, IRDye800-conjugated secondary antibody (Rockland Immunochemicals Inc., Gilbertsville, Pa.). Finally the membranes were again washed three times with PBST and scanned in an Odyssey infrared scanner (Li-Cor, Lincoln, Nebr.). Quantitations on immunoblots were performed using Licor software. Primary antibodies included antibodies to opsin, HA-tag (Covance Princeton, N.J.), mTOR, phosphorylated mTOR (Upstate Charlottesville, Va.), calnexin, hsp70 (Stressgen, Victoria, BC, CA), Bip (BD PharMingen, San Diego, Calif.) to tubulin (Sigma Chemical, St. Louis, Mo.), 1D4 (University of British Columbia), Akt, phospho-Akt, S6K, phospho-S6K, MAPK and phosphor-MAPK (Cell Signaling Technology, Beverly, Mass.).
Following tetracycline wash off, cells were treated for 0, 2, 6 and 12 hours then lysed in phosphate buffer containing 1% n-dodecyl-β-maltoside (DM) (Anatrace) in the presence of protease inhibitors (complete protease inhibitor mixture tablets; Roche Molecular Biochemicals) for 1 hour at 4° C. As a positive control for autophagy, cells were treated with rapamycin (50 nM), following tetracycline wash off. The lysates were centrifuged at 36,000 rpm in a Beckman ultracentrifuge for 10 min at 4C. The supernatant was collected and immunoblotting was performed. 3-methyladenine (3MA), which blocks autophagy (10 mM) (Sigma Chemical (St. Louis, Mo.)) and MG132 (25 μM) (Sigma Chemical (St. Louis, Mo.)) were also used.

mTOR = mTOR phosphorylation in opsin-expressing HEK293 cells (immunoblot); format: cell-based, human
Description: Cell lysates were electrophoresed on 10% SDS polyacrylamide gels and transferred onto Immobilon-NC (Millipore, Billerica, Mass.) nitrocellulose membranes. The membranes were incubated at room temperature for 1 hour with a commercially available blocking buffer (Li-Cor, Lincoln, Nebr.) diluted 1:1 in PBST (PBS with 0.1% triton X-100, pH 7.4), followed by a 1 hour incubation with the indicated primary antibody. The blots were washed three times for 5 minutes each in PBST, and incubated for 1 hour with a true near infrared dye, IRDye800-conjugated secondary antibody (Rockland Immunochemicals Inc., Gilbertsville, Pa.). Finally the membranes were again washed three times with PBST and scanned in an Odyssey infrared scanner (Li-Cor, Lincoln, Nebr.). Quantitations on immunoblots were performed using Licor software. […]

[1] = tested on: HEK293 cells expressing P23H opsin; assay: immunocolocalization of autophagosome markers Atg7 and Atg8 with P23H opsin; format: cell-based, human; settings: FTI-277 treatment versus untreated cells in complete medium
Description: Cells were grown on glass coverslips and fixed in 4% paraformaldehyde. Following quenching with 50 mM NH4Cl, cells were washed with PBS and incubated for 1 hour with the indicated primary antibody at room temperature. Cells were washed five times in PBS and incubated with a secondary antibody (TRITC- and FITC-conjugate) for 1 hour. The cells were washed again and mounted with Vectashield containing DAPI. Primary antibodies included antibodies to LC3, LAMP-1, Atg7 (Dr Dunn), opsin, Atg7^20, Atg8 and HA-tag. The cells were then observed using a Zeiss Axiophot microscope.
(§2) Staining with lysotracker (Molecular Probes) was also performed on live cells at 37° C. Confocal imaging was performed using the Leica TCS SP2 AOBS Spectral Confocal Microscope at 63× magnification.

Rheb = settings: Basso et al., 2005; cited from earlier work
Akt = Akt phosphorylation in HEK293 cells (immunoblot); format: cell-based, human; settings: FTI-277 treatment
Description: as §1
(§3) FTI-277 (Calbiochem) was used at 50 μM. […]

MAPK = MAPK phosphorylation in HEK293 cells (immunoblot); format: cell-based, human; settings: FTI-277 treatment
Description: as §1, §3

[2] = tested on: HuH7 hepatoma cells stably expressing GFP-LC3; assay: GFP-LC3 localization in HuH7 hepatoma cells (confocal); format: cell-based; settings: FTI-277 treated versus fed cells
Description: HuH7 hepatoma cells were stably transfected with pGFP-LC3 (Ogawa et al., Science 307(5710): 727-731, 2005) using a lipid optimization kit, the PerFect lipid (pFx-3), purchased from Invitrogen (San Diego, Calif.). PFX-3 (Invitrogen) according to manufacturer's protocols. Those colonies that grew in the presence of 0.5 mg/ml G418 were then isolated, amplified, and screened for GFP-LC3 expression by fluorescence microscopy and Western blotting.
as §2

[3] = tested on: HEK293 cells expressing P23H opsin; assay: electron microscopy morphometric quantification of autophagic vacuoles (AVs); format: cell-based, human; settings: FTI-277 for two hours and six hours
Description: P23H opsin-expressing cells were grown on ACLAR sheets in a 24-well plate. […] Following a wash with PBS, cells were fixed with 2% paraformaldehyde, 2% glutaraldehyde in 0.1M sodium cacodylate buffer, pH 7.4 for 30 minutes at 4° C. and processed for CMPase cytochemistry as previously described (31). Morphometric quantification of AVs was done on 20 electron micrographs per condition using Image J software T-test analysis was performed and P value (two-tailed significance) under or equal to 0.05 was considered significant (marked with asterisk).

[4] = tested on: Bip, calnexin, calreticulin, Hsp70, Hsp90; assay: UPR/HSR chaperone levels in opsin-expressing HEK293 cells (immunoblot); format: cell-based, human; settings: FTI-277 treatment, time-dependent
Description: as §1, §3

[5] = tested on: HEK293 cells expressing P23H opsin; assay: lysotracker staining of lysosomal vacuoles; format: cell-based, human
Description: as §2

S6 kinase = S6 kinase phosphorylation in HEK293 cells (immunoblot); format: cell-based, human; settings: within two hours of treatment
Description: as §1, §3

[6] = tested on: Abcr heterozygous mutant mice; assay: ERG retinal function in mouse model of macular degeneration; format: in vivo; settings: rapamycin 20 mg/kg once per week intraperitoneal from four months old
Description: abcr+/− mice are described by Mata et al., Investigative Opthalmology and Visual Science. 2001; 42:1685-1690.
abcr+/− mice were treated with 20 mg/kg of rapamycin once per week beginning when the mice were four months old. The rapamycin was administered by intraperitoneal injection.
(§4) The mice are dark adapted twenty-four hours prior to ERG. A mix of ketamine and xylazine was used to anesthestize mice. Dosage was determined by weight. Mouse eyes were numbed with proparacaine drops and dilated with Ak-dilate. The mouse was then placed on the machine (UTAS-E 2000) a ground electrode was inserted into the hind limb, another electrode was inserted into the neck, and a pair of electrode was used to record the ERG from each eye. After getting a baseline reading, the ERG was measured at 20, 10 and 0 dB. Monthly ERG's were measured and the B-wave amplitude was determined.

[7] = tested on: P23H heterozygous mutant mice; assay: ERG retinal function in P23H mouse model of retinitis pigmentosa; format: in vivo; settings: rapamycin once per week from twenty-one days old; course of three months
Description: Mice expressing the P23H opsin protein are described by Liu et al., Journal of Cell Science 110, 2589-2597 (1997).
Heterozygous P23H transgenic mice were treated once per week with rapamycin beginning when the mice were twenty-one days old.
as §4

[8] = cited from earlier work

For `Cn1cnc(N)c2ncnc1-2` [3-MA, 3-methyladenine], the “effect of inhibitor on FTI-277 induced P23H opsin degradation” value (P23H opsin) was “prevented degradation of opsin; also recorded: inhibited P23H opsin degradation” and the “effect of inhibitor on P23H opsin degradation” value (P23H opsin) was “inhibited P23H degradation”.

For `CC1=C(/C=C/C(C)=C/C=C/C(C)=C/C=O)C(C)(C)CCC1` [11-cis retinal], the “levels of P23H degradation” value (P23H opsin; 11-cis retinal administered at the time autophagy was induced) was “not altered” and the “P23H protein degradation profile versus wild-type opsin and untreated P23H cells” value (P23H opsin; 11-cis retinal during amino acid depletion) was “intermediate degradation profile”.

For `CC(C)C[C@@H](C=O)NC(=O)[C@H](CC(C)C)NC(=O)[C@H](CC(C)C)NC(=O)OCc1ccccc1` [MG132] (Cbz-Leu-Leu-Leu-aldehyde), the “effect of inhibitor on FTI-277 induced P23H opsin degradation” value (P23H opsin) was “did not interfere” and the “effect of inhibitor on P23H opsin degradation” value (P23H opsin) was “no effect”.

With `COC(=O)[C@H](CCSC)NC(=O)c1ccc(NC[C@@H](N)CS)cc1-c1ccccc1` [FTI-277, methyl {N-[2-phenyl-4-N[2(R)-amino-3-mercaptopropylamino]benzoyl]}-methionate] the “dephosphorylation of mTOR” value (mTOR; FTI-277 in combination with amino acid and serum starvation) was “further enhanced”, the “phosphorylation of mTor” value (mTOR; FTI-277 treatment, time course of twelve hours) was “effectively inhibited” and the “colocalization of Atg7 and Atg8 with P23H opsin” value [1] was “dramatic increase”. For the same compound, the “prenylation of Rheb” value (Rheb) was “completely block”, the “stimulation of Akt phosphorylation” value (Akt) was “unaffected” and the “degradation of P23H opsin” value (P23H opsin; FTI-277 at 10 μM) was “No effect”. For the same compound, the “degradation of P23H opsin” value (P23H opsin; FTI-277 at 50 μM) was “time-dependent degradation”, the “loss of P23H opsin” value (P23H opsin) was 50% and the “degradation of P23H rhodopsin (Western blot)” value (P23H opsin; fed cells treated with 10 μM or 50 μM FTI277 (FIG. 8)) was “induced the rapid degradation”. For the same compound, the MAPK phosphorylation (MAPK) was “slight increase”, the GFP-LC3 localization [2] was “localized to numerous structures consistent with its association with autophagic vacuoles” and the “increase in the fractional volume of AVs compared to untreated cells” value [3] was 4 to 6 fold and 6 fold. For the same compound, the “levels of calnexin, calreticulin, Hsp70 and Hsp90 (UPR and HSR)” value [4] was “did not affect”, the “lysosomal numbers and size (lysotracker)” value [5] was “increase” and the “phosphorylation of S6 kinase” value (S6 kinase) was “dramatically reduced”.

With `CO[C@H]1C[C@@H]2CC[C@@H](C)[C@@](O)(O2)C(=O)C(=O)N2CCCC[C@H]2C(=O)O[C@H]([C@H](C)C[C@@H]2CC[C@@H](O)[C@H](OC)C2)CC(=O)[C@H](C)/C=C(\C)[C@@H](O)[C@@H](OC)C(=O)[C@H](C)C[C@H](C)/C=C/C=C/C=C/1C` [rapamycin] the “retinal function (ERG)” value [6] was “rescues retinal function; also recorded: enhances retinal function”, the “loss of P23H opsin” value (P23H opsin) was 70% and the “retinal function (ERG)” value [7] was “rescued retinal function; also recorded: enhances retinal function”. The “absorption after oral administration” value [8] was “absorbed rapidly and completely”.
